Data published in patent US20220280607A1, “Treatment of Heart Defects and Conditions in Pediatric Patients” (University of Pittsburgh - Of the Commonwealth System of …, priority 2019, published 2022).

Legend:
[1] = system: heart muscle cells of neonatal mice; experiment: Neonatal mice given beta blocker by retro-orbital injection (Examples 2 and 3): total cardiomyocytes, heart-body weight ratio; type: in vivo, mouse; conditions: retro-orbital injection twice a day, 1 μg/μl, 10 μl per g body weight; for heart-body-weight ratio: FIG. 17B, 18B; for total number of heart muscle cells (cardiomyocytes): P4 and P8 groups, FIG. 17A, 18A
Protocol: (§1) Metoprolol was dissolved in PBS (1 μg/μl). The metoprolol was administered to neonatal mice using retro-orbital injection twice a day at the dose of 10 μl solution each 1 g body weight In the 4-day-old group (P4), the drug administration was performed at 9 am and 3 μm, respectively, from P1 and P3, then only injections at 9 am were performed at P4. The hearts were isolated at P4 in the afternoon. In the 8-day-old group (P8), the drug administration was performed at 9 am and 3 μm, respectively, from P1 and P7, then only injections at 9 am were performed at P8. The hearts were isolated at P8 in the afternoon.
as §1, with “Alprenolol” for “Metoprolol”, “alprenolol” for “metoprolol”, “pm,” for “μm,”

[2] = system: cardiomyocytes of newborn mice; experiment: Mouse pharmacological treatment of newborn mice: binucleated cardiomyocytes, cardiomyocyte endowment, cell cycle activity, heart weight; type: in vivo; conditions: newborn mice; for increase in the proportion of binucleated cardiomyocytes: forskolin 1 μg/g, 1 i.p. injection per day, FIG. 12B
Protocol: […] An equal volume of phosphate buffered saline (PBS) was injected in the control groups.
Isolation of intact cardiomyocytes for quantification: We used a previously validated fixation digestion method to isolate intact cardiomyocytes from fresh or frozen myocardium for quantification (Mollova, M., et al. “Cardiomyocyte proliferation in human heart growth” Proceedings of the National Academy of Sciences January 2013, 110 (4) 1446-1451; DOI: 10.1073/pnas.1214608110). The myocardium was cut into 1 cubic millimeter (mm^3) sized tissue blocks followed by incubation with 3.7% formaldehyde at room temperature for 1.8 hours. After being washed with PBS 3 times to remove the formaldehyde, the fixed tissue blocks were digested in enzyme solution (Collagenase B, 3.6 mg/ml; Collagenase D, 4.8 mg/ml) at 37 degrees Celsius (° C.), with 10 revolutions per minute (rpm) overhead rotation. The digested cells were collected every 24 hours from the supernatant, and the undigested tissue was re-suspended with fresh enzyme solution until all of the tissue pieces were digested. All of the digested cells from the same heart were then combined and allowed to settle to the bottom of the tube. The cell pellet was collected for further study.
Counting of cardiomyocytes after fixation and digestion: All fractions from the digestion of a heart were combined in 2 milliliters (mL) PBS and cardiomyocytes were quantified using a hemocytometer.
Intact cardiomyocytes in suspension. To assess M-phase, intact cardiomyocytes were isolated by fixation-digestion. The solution containing the stained cells was then transferred to 8-well chambered cover glass (400 μl/well). After the cells were settled down to the bottom of the chambers, the number of mono/bi/multinucleated cardiomyocytes were counted with a fluorescence microscope, and the percentage of mono/bi/multinucleated cardiomyocytes was calculated. To quantify the proportion of H3P-positive cardiomyocytes, the concentration of stained cardiomyocytes in suspension (Ccardiomyocytes) was first measured using a hemocytometer. The cell suspension (400 μl) was then transferred to a well of a chamber slide, and the total number of H3P-positive cardiomyocytes (HH3P+) inside the well was counted with a TiE epifluorescence microscope. The proportion of the H3P-positive cardiomyocytes (PH3P+) was calculated using the following formula: […]
Heart sections: To determine S-phase, BrdU (40 μg/g body) was administered to P7 ICR mice and the hearts were resected at P8, fixed, and cryosectioned at 15 μm thickness. From each heart, four heart sections at a distance of 300 μm were selected and imaged by tile scanning with a Nikon A1R confocal microscope. The total number of BrdU-positive cardiomyocytes at the selected heart sections was counted. The total area of the selected heart sections was measured by Fiji software. The density of BrdU-positive cardiomyocytes (cells/mm^2) in the hearts was calculated using the following equation: […]
Intact cardiomyocytes in suspension. Cardiomyocytes were isolated from fresh or frozen (human or mouse) ventricle myocardium using the fixation-digestion method, followed by immunostaining as described above. The cells were then imaged and quantified with a Nikon A1R microscope for mono/bi/multi-nucleation.

[3] = system: human fetal cardiomyocytes; experiment: Cytokinesis failure in cultured human fetal cardiomyocytes (β-adrenergic receptor signaling pathway studies); type: cell-based; conditions: cultured human fetal cardiomyocytes, 10 μM, FIG. 14C
Protocol: Primary cardiomyocyte culture experiments: Neonatal (mouse or rat) cardiomyocytes or human fetal cardiomyocytes were plated in 4-well chamber slides pre-coated with fibronectin (10 μg/ml) at a density of 200,000 cells/well and cultured with DMEM/high glucose (for mouse and rat cardiomyocytes) or IMDM (for fetal human cardiomyocytes) containing 10% fetal bovine serum (FBS) and recombinant neuregulin 1 (rNRG1, 100 nanograms per milliliter (ng/ml)) overnight. All treatments and BrdU (30 micromolar (μM)) were added on the next day.
β-adrenergic receptor signaling pathway studies: Forskolin (10 μM), propranolol (10 μM), dobutamine (10 μM), or a combination of propranolol (10 μM) and dobutamine (10 μM) were added to the culture from day 1 to day 3. The cells were collected for examining gene expression or immunofluorescence microscopy at day 3.
Cardiomyocytes cultured on glass surfaces. […] The BrdU-positive nuclei, cell-cell boundaries (Pan-Cadherin antibody), and cardiomyocyte markers (α-actinin or troponin I antibody) were labeled by immunofluorescence. The stained cells were imaged under Nikon confocal microscope. The binucleated cardiomyocytes and all BrdU-positive cardiomyocytes were quantified using Fiji software.

[4] = system: cardiomyocytes from infants with ToF/PS; experiment: ToF/PS myocardium tissue (organotypic) culture: binucleated BrdU-labeled cardiomyocytes; type: cell-based, human; conditions: organotypic cultures of heart pieces from infants with ToF/PS, 10 μM, BrdU, FIG. 14E
Protocol: ToF/PS myocardium tissue culture: Discarded myocardium samples were collected during ToF/PS surgery, cut into ˜1 mm^3 tissue blocks, and cultured in IMDM media containing 10% FBS, recombinant neuregulin 1 (rNRG1, 100 ng/ml), and BrdU (30 μM) for 6 days. Samples were treated with forskolin (10 μM), propranolol (10 μM), dobutamine (10 μM), or a combination of propranolol (10 μM) and dobutamine (10 μM).
Cultured ToF/PS myocardium. Cardiomyocytes were isolated from cultured myocardium with the fixation-digestion method. After denaturing the DNA with 2N HCl and neutralization with 2 Normal (N) sodium hydroxide (NaOH), immunofluorescence antibody labeling was performed in solution. The proportion of binucleated and BrdU-positive was quantified with a Nikon A1R microscope.

For `COCCc1ccc(OCC(O)CNC(C)C)cc1` (centres unmarked) [Metoprolol, 1-[4-(2-methoxyethyl)phenoxy]-3-(propan-2-ylamino)propan-2-ol], the heart-body-weight ratio [1] was “did not alter” and the “total number of heart muscle cells (cardiomyocytes)” value [1] was “did not alter”.

With `C=CCc1ccccc1OCC(O)CNC(C)C` (centres unmarked) [alprenolol, 1-(propan-2-ylamino)-3-(2-prop-2-enylphenoxy)propan-2-ol] the heart weight ([2]; 2 i.p. injections per day, FIG. 16A, 16B) was “did not result in a change”, the “increase of cardiomyocyte endowment” value ([2]; at P8, 2 i.p. injections per day, counting fixation-digested hearts, FIG. 12D, 12H) was 24% and the “decrease of the proportion/formation of binucleated cardiomyocytes” value ([2]; treatment from P1 to P8, 2 i.p. injections per day (propranolol 10 μg/g; alprenolol 10 μg/g, 40 μg/g), FIG. 12C, 12G) was 13%. The heart-body-weight ratio [1] was “without altering” and the “total number of heart muscle cells (cardiomyocytes)” value [1] was “increases”.

With `CC(CCc1ccc(O)cc1)NCCc1ccc(O)c(O)c1` (centres unmarked) [dobutamine] the “binucleated cardiomyocytes as % of the Fsk-induced increase” value [3] was 95.2% and the “proportion of binucleated cardiomyocytes” value [4] was “maximal increase”.

For `C=C[C@@]1(C)CC(=O)[C@]2(O)[C@@]3(C)[C@@H](O)CCC(C)(C)[C@@H]3[C@H](O)[C@H](OC(C)=O)[C@@]2(C)O1` [forskolin], the “increase in the proportion of binucleated cardiomyocytes” value ([2]; after 4 days) was 37% and the “increase in the proportion of binucleated cardiomyocytes” value ([2]; after 8 days) was 21%.
